Results on 18 molecules are retold here after US8536202B2, “Triazole-substituted anthranilamides as pesticides” (Bayer Cropscience AG, priority 2010, dated 2013).

Structures are written as SMILES. Where two headings read alike, the source gives them in different places.

The subject of series [1] is caterpillars of the armyworm (Spodoptera frugiperda). Kind of series: Spodoptera frugiperda test (SPODFR spray treatment). It counts as in vivo. The note with it: 168 h, read-out: activity in %. As for the experimental part: (§1) Solvents: 78.0 parts by weight of acetone • • 1.5 parts by weight of dimethylformamide
(§2) Emulsifier: 0.5 part by weight of alkylaryl polyglycol ether
(§3) An appropriate preparation of active compound is prepared by mixing 1 part by weight of active compound with the stated amounts of solvent and emulsifier and diluting the concentrate with emulsifier-containing water to the desired concentration.
Leaf discs of maize (Zea mays) are sprayed with a preparation of active compound at the desired concentration and, after drying, are populated with caterpillars of the armyworm (Spodoptera frugiperda).
After 7 days, the activity in % is ascertained. Here, 100% means that all of the caterpillars have been killed; 0% means that no caterpillar has been killed.

For series [2], the system named is larvae of the mustard beetle (Phaedon cochleariae). As to the kind of experiment: Phaedon test (PHAECO spray treatment). The note with it: 168 h, 100 g/ha, after 7 days, read-out: activity in %. It counts as in vivo. As to the method:
as §1, §2, §3
After 7 days, the activity in % is ascertained. Here, 100% means that all of the beetle larvae have been killed; 0% means that no beetle larvae have been killed.

Series [3] can be described thus: log P determination by HPLC on reversed-phase columns (EEC Directive 79/831 Annex V.A8). It counts as physicochemical. The conditions noted are these: pH 2.7. As for the experimental part: Determination by LC-MS in the acidic range takes place at a pH of 2.7 using 0.1% aqueous formic acid and acetonitrile (containing 0.1% formic acid) as eluents, with a linear gradient from 10% acetonitrile to 95% acetonitrile.
Calibration was carried out using unbranched alkan-2-ones (having 3 to 16 carbon atoms) with known log P values (the log P values are determined from the retention times by linear interpolation between two successive alkanones).

Take `Cc1cc(Cl)cc(C(=O)NC(C)C2CC2)c1NC(=O)c1cc(Cn2ncc(C(F)(F)C(F)(F)F)n2)nn1-c1ncccc1Cl` (stereo not shown) [Example 351]: the pest or weed control at 100 g/ha amounted to 100% in series [1] (100 g/ha, after 7 days) and 100% in series [2]. This molecule also gave a chromatographic logP in series [3] of 4.21.
As for `CNC(=O)c1cc(C#N)cc(C)c1NC(=O)c1cc(Cn2ncc(C(C)C)n2)nn1-c1ncccc1Cl` [Example 38], the pest or weed control at 100 g/ha in series [2] came to 100%. Also, in series [3], the chromatographic logP was determined as 2.58.
The like results for `CNC(=O)c1cc(C#N)cc(C)c1NC(=O)c1cc(Cn2cc(C3CC3)nn2)nn1-c1ncccc1Cl` [Example 29] were, in that order, 100% and 1.86.
With `CNC(=O)c1cc(C#N)cc(C)c1NC(=O)c1cc(Cn2cc(C(C)C)nn2)nn1-c1ncccc1Cl` [Example 30], in series [2], the pest or weed control at 100 g/ha amounted to 100%. In series [3], this molecule yielded a chromatographic logP of 2.03.
Take `CNC(=O)c1cc(C#N)cc(C)c1NC(=O)c1cc(Cn2ncc(C3CC3)n2)nn1-c1ncccc1Cl` [Example 37]: the pest or weed control at 100 g/ha in series [2] was 100%. The molecule further came in with a chromatographic logP in series [3] of 2.28.
Take `Cc1cc(C#N)cc(C(=O)NCC#N)c1NC(=O)c1cc(Cn2cc(C(F)(F)F)nn2)nn1-c1ncccc1Cl` [Example 186]: the pest or weed control at 100 g/ha in series [2] turned out to be 100%. In series [3], this molecule displayed a chromatographic logP of 2.32.
On to `CNC(=O)c1cc(Cl)cc(C)c1NC(=O)c1cc(Cn2cc(C(C)C)nn2)nn1-c1ncccc1Cl` [Example 14], for which, in series [2], the pest or weed control at 100 g/ha was determined as 83%. This molecule also showed a chromatographic logP in series [3] of 2.29.
Turning to `Cc1cc(C#N)cc(C(=O)NC(C)(C)C)c1NC(=O)c1cc(Cn2cc(C(F)(F)F)nn2)nn1-c1ccccc1Cl` [Example 292], the pest or weed control at 100 g/ha in series [1] (100 g/ha, after 7 days) is 100%. For the same molecule, the chromatographic logP in series [3] (reversed-phase C18 HPLC column, HPLC on reversed-phase columns (C 18), EEC Directive 79/831 Annex V.A8, read-out: logP) came out at 3.48.
In the case of `Cc1cc(Cl)cc(C(=O)NC(C)(C)C)c1NC(=O)c1cc(Cn2ncc(C3CC3)n2)nn1-c1ncccc1Cl` [Example 46], the pest or weed control at 100 g/ha in series [2] is 100%. Also, the chromatographic logP in series [3] was 3.6.
Take `CNC(=O)c1cc(Cl)cc(C)c1NC(=O)c1cc(Cn2nnc3ccc(F)cc32)nn1-c1ncccc1Cl` [Example 78]: the pest or weed control at 100 g/ha in series [1] (100 g/ha, after 7 days) amounted to 100%. Besides, the chromatographic logP in series [3] was found to be 2.57.
The corresponding values for `CNC(=O)c1cc(Cl)cc(C)c1NC(=O)c1cc(Cn2ncc(C(C)C)n2)nn1-c1ncccc1Cl` [Example 22] are 100% and 2.85.
Regarding `Cc1cc(Cl)cc(C(=O)NC(C)(C)C)c1NC(=O)c1cc(Cn2ncc(C(F)(F)C(F)(F)C(F)(F)F)n2)nn1-c1ncccc1Cl` [Example 374], the pest or weed control at 100 g/ha in series [1] is 100%. The chromatographic logP in series [3] (HPLC on reversed-phase columns (C 18), EEC Directive 79/831 Annex V.A8, read-out: logP) came to 4.65.
`Cc1cc(C#N)cc(C(=O)NC(C)(C)C)c1NC(=O)c1cc(Cn2cc(-c3ccccc3Cl)nn2)nn1-c1ncccc1Cl` [Example 56]: the pest or weed control at 100 g/ha in series [1] (100 g/ha, after 7 days) was 83%. The chromatographic logP in series [3] came out at 3.45.
With `CNC(=O)c1cc(C#N)cc(C)c1NC(=O)c1cc(Cn2cc(C(C)(C)C)nn2)nn1-c1ncccc1Cl` [Example 31], the pest or weed control at 100 g/ha in series [2] is 100%. The same molecule displayed a chromatographic logP in series [3] of 2.25.
On to `Cc1cc(I)cc(C(=O)NC2CCC2)c1NC(=O)c1cc(Cn2ncc(C(F)(F)F)n2)nn1-c1ncccc1Cl` [Example 164], for which the pest or weed control at 100 g/ha in series [2] was 100%. In series [3], this molecule registered a chromatographic logP of 3.89.
As to `Cc1cc(C#N)cc(C(=O)NC(C)(C)C)c1NC(=O)c1cc(Cn2nnc3cc(Br)ccc32)nn1-c1ncccc1Cl` [Example 106], the pest or weed control at 100 g/ha in series [1] (100 g/ha, after 7 days) worked out at 100%. The same molecule displayed a chromatographic logP in series [3] of 3.31.
Take `CNC(=O)c1cc(C#N)cc(C)c1NC(=O)c1cc(Cn2nnc3cc(Cl)c(Cl)cc32)nn1-c1ncccc1Cl` [Example 80]: the pest or weed control at 100 g/ha in series [1] (100 g/ha, after 7 days) stood at 100%. The molecule further returned a chromatographic logP in series [3] of 2.96.
On to `CNC(=O)c1cc(C#N)cc(C)c1NC(=O)c1cc(Cn2cc(-c3ccc(F)cc3)nn2)nn1-c1ncccc1Cl` [Example 32], for which the pest or weed control at 100 g/ha in series [1] (100 g/ha, after 7 days) was determined as 100%. The same molecule yielded a chromatographic logP in series [3] of 2.41.
